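Following 48 hours of exposure in 96-well plates, responses at five concentrations were used to interpolate endpoints linearly. GI50 marks 50% less growth.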 Active and inactive are the calls of the source. Rule as the data show it: active = GI50 up to about 1.1 µM and inactive = higher.
What was measured:
Assay in all cases: growth of human tumour cells (NCI), 48 h
DMS-273 = system: DMS-273
SF-539 = system: SF-539
HCC 2998 = system: HCC 2998
SNB-78 = system: SNB-78
ACHN = system: ACHN
IGROV-1 = system: IGROV-1
DLD-1 = system: DLD-1
NCI-H23 = system: NCI-H23
UO-31 = system: UO-31
HT-29 = system: HT-29
NCI-H460 = system: NCI-H460
SW-620 = system: SW-620
CCRF-CEM = system: CCRF-CEM
SNB-75 = system: SNB-75
LOX IMVI = system: LOX IMVI
NCI-H226 = system: NCI-H226
RXF 631 = system: RXF 631
COLO 205 = system: COLO 205
RPMI-8226 = system: RPMI-8226
SF-268 = system: SF-268
A549 = system: A549
OVCAR-5 = system: OVCAR-5
SF-295 = system: SF-295
HCT-15 = system: HCT-15
SN12C = system: SN12C
OVCAR-4 = system: OVCAR-4
TK-10 = system: TK-10
SK-MEL-5 = system: SK-MEL-5
UACC-62 = system: UACC-62
U-251 = system: U-251
KM12 = system: KM12
K562 = system: K562
MOLT-4 = system: MOLT-4
EKVX = system: EKVX
Malme-3M = system: Malme-3M
LXFL 529 = system: LXFL 529
SK-OV-3 = system: SK-OV-3
A498 = system: A498
SNB-19 = system: SNB-19
SR = system: SR
HL-60 = system: HL-60
M14 = system: M14
SK-MEL-28 = system: SK-MEL-28
DMS-114 = system: DMS-114
XF498 = system: XF498
OVCAR-8 = system: OVCAR-8
HOP-18 = system: HOP-18
M19-MEL = system: M19-MEL
786-0 = system: 786-0
RXF 393 = system: RXF 393
OVCAR-3 = system: OVCAR-3
CAKI-1 = system: CAKI-1
HCT-116 = system: HCT-116
HOP-62 = system: HOP-62
NCI-H522 = system: NCI-H522
UACC-257 = system: UACC-257
KM-20L2 = system: KM-20L2
SK-MEL-2 = system: SK-MEL-2

O=C1NC(=O)C2C1c1[nH]c3ccccc3c1C1CCCC12 (configuration not stated)
GI50 (DMS-273): 0.481 µM (active) | GI50 (SF-539): 3.03 µM (inactive) | GI50 (HCC 2998): 6.55 µM (inactive) | GI50 (SNB-78): 6.35 µM (inactive) | GI50 (ACHN): 22.3 µM (inactive) | GI50 (IGROV-1): 14.1 µM (inactive) | GI50 (DLD-1): 3.87 µM (inactive) | GI50 (NCI-H23): 3.79 µM (inactive) | GI50 (UO-31): 6.55 µM (inactive) | GI50 (HT-29): 2.07 µM (inactive) | GI50 (NCI-H460): 4.17 µM (inactive) | GI50 (SW-620): 0.951 µM (active) | GI50 (CCRF-CEM): 1.86 µM (inactive) | GI50 (SNB-75): 2.17 µM (inactive) | GI50 (LOX IMVI): 3.52 µM (inactive) | GI50 (NCI-H226): 3.61 µM (inactive) | GI50 (RXF 631): 3.44 µM (inactive) | GI50 (COLO 205): 4.23 µM (inactive) | GI50 (RPMI-8226): 3.41 µM (inactive) | GI50 (SF-268): 4.02 µM (inactive) | GI50 (A549): 0.916 µM (active) | GI50 (OVCAR-5): > 100 µM (inactive) | GI50 (SF-295): 1.29 µM (inactive) | GI50 (HCT-15): 1.49 µM | GI50 (SN12C): 6.87 µM (inactive) | GI50 (OVCAR-4): 25.6 µM (inactive) | GI50 (TK-10): 8.75 µM (inactive) | GI50 (SK-MEL-5): 0.893 µM (active) | GI50 (UACC-62): 5.47 µM (inactive) | GI50 (U-251): 3.1 µM (inactive) | GI50 (KM12): 2.17 µM (inactive) | GI50 (K562): 0.48 µM (active) | GI50 (MOLT-4): 2.44 µM (inactive) | GI50 (EKVX): 6.76 µM (inactive) | GI50 (Malme-3M): 2.52 µM (inactive) | GI50 (LXFL 529): 6.37 µM (inactive) | GI50 (SK-OV-3): 4.49 µM (inactive) | GI50 (A498): 4.76 µM (inactive) | GI50 (SNB-19): 5.07 µM (inactive) | GI50 (SR): 2.81 µM (inactive) | GI50 (HL-60): 0.573 µM (active) | GI50 (M14): 1.73 µM (inactive) | GI50 (SK-MEL-28): 4.1 µM (inactive) | GI50 (DMS-114): 1.35 µM (inactive) | GI50 (XF498): 0.538 µM (active) | GI50 (OVCAR-8): 4.93 µM (inactive) | GI50 (HOP-18): 25.3 µM (inactive) | GI50 (M19-MEL): 0.971 µM (active) | GI50 (786-0): 5.02 µM (inactive) | GI50 (RXF 393): 2.7 µM (inactive) | GI50 (OVCAR-3): 1.83 µM (inactive)

CCOC(=N)CC(=O)NC(C)c1ccccc1 (configuration not stated)
GI50 (DMS-273): > 100 µM (inactive) | GI50 (SF-539): > 100 µM (inactive) | GI50 (HCC 2998): 87.7 µM (inactive) | GI50 (CAKI-1): > 100 µM (inactive) | GI50 (SNB-78): > 100 µM (inactive) | GI50 (ACHN): > 100 µM (inactive) | GI50 (IGROV-1): > 100 µM (inactive) | GI50 (DLD-1): > 100 µM (inactive) | GI50 (NCI-H23): > 100 µM (inactive) | GI50 (UO-31): > 100 µM (inactive) | GI50 (HCT-116): > 100 µM (inactive) | GI50 (HT-29): > 100 µM (inactive) | GI50 (NCI-H460): > 100 µM (inactive) | GI50 (SW-620): > 100 µM (inactive) | GI50 (CCRF-CEM): > 100 µM (inactive) | GI50 (SNB-75): > 100 µM (inactive) | GI50 (LOX IMVI): > 100 µM (inactive) | GI50 (HOP-62): > 100 µM (inactive) | GI50 (NCI-H226): > 100 µM (inactive) | GI50 (RXF 631): > 100 µM (inactive) | GI50 (COLO 205): > 100 µM (inactive) | GI50 (SF-268): > 100 µM (inactive) | GI50 (A549): > 100 µM (inactive) | GI50 (NCI-H522): > 100 µM (inactive) | GI50 (OVCAR-5): > 100 µM (inactive) | GI50 (SF-295): > 100 µM (inactive) | GI50 (HCT-15): > 100 µM | GI50 (SN12C): > 100 µM (inactive) | GI50 (OVCAR-4): > 100 µM (inactive) | GI50 (TK-10): > 100 µM (inactive) | GI50 (SK-MEL-5): > 100 µM (inactive) | GI50 (UACC-62): > 100 µM (inactive) | GI50 (U-251): > 100 µM (inactive) | GI50 (KM12): > 100 µM (inactive) | GI50 (K562): > 100 µM (inactive) | GI50 (MOLT-4): > 100 µM (inactive) | GI50 (EKVX): > 100 µM (inactive) | GI50 (Malme-3M): > 100 µM (inactive) | GI50 (UACC-257): > 100 µM (inactive) | GI50 (LXFL 529): > 100 µM (inactive) | GI50 (SK-OV-3): > 100 µM (inactive) | GI50 (A498): > 100 µM (inactive) | GI50 (SNB-19): > 100 µM (inactive) | GI50 (SR): > 100 µM (inactive) | GI50 (HL-60): > 100 µM (inactive) | GI50 (M14): > 100 µM (inactive) | GI50 (SK-MEL-28): > 100 µM (inactive) | GI50 (KM-20L2): > 100 µM (inactive) | GI50 (XF498): > 100 µM (inactive) | GI50 (OVCAR-8): > 100 µM (inactive) | GI50 (HOP-18): > 100 µM (inactive) | GI50 (M19-MEL): > 100 µM (inactive) | GI50 (786-0): > 100 µM (inactive) | GI50 (SK-MEL-2): > 100 µM (inactive) | GI50 (RXF 393): > 100 µM (inactive) | GI50 (OVCAR-3): > 100 µM (inactive)
